Drawing on ChEMBL document CHEMBL5260828, “Amphiphilic glycoconjugates as potential anti-cancer chemotherapeutics” (Eur J Med Chem, 2018), this text covers IC50 and GI50 for five compounds.

In brackets after ≈: the same amount, converted by molar mass.

For one data set, the system named is T84. In words: Cytotoxicity against human T84 cells incubated upto 96 hrs by MTT assay. The format is functional, cell-based. Conditions: T84, 96 h.
In data set [1] the test system is HT-29. The experiment in a line: Cytotoxicity against human HT-29 cells incubated upto 96 hrs by MTT assay. The settings on record: HT-29, 96 h. The class given is functional, cell-based.
The subject of another data set is Caco-2. The experiment in a line: Cytotoxicity against human Caco-2 cells incubated upto 96 hrs by MTT assay. The format is functional, cell-based. The settings on record: Caco-2, 96 h.
Another data set has as its system RXF 944. In words: Cytotoxicity against human RXF 944 cells assessed as inhibition of cell proliferation by propidium iodide assay. The format is functional, cell-based.
Data set [2] has as its system HCT-116. In words: Cytotoxicity against human HCT-116 cells assessed as inhibition of cell proliferation by propidium iodide assay. The format is functional, cell-based.
The next data set deals with LNCaP. In words: Cytotoxicity against human LNCaP cells assessed as inhibition of cell proliferation by propidium iodide assay. The class given is functional, cell-based.
In a further data set the test system is MCF7. In words: Cytotoxicity against human MCF7 cells assessed as inhibition of cell proliferation by propidium iodide assay. The class given is functional, cell-based.
The subject of the next data set is MEXF276L. In words: Cytotoxicity against human MEXF276L cells assessed as inhibition of cell proliferation by propidium iodide assay. The class given is functional, cell-based.
Data set [3] can be described thus: Cytotoxicity against human MEXF 462NL cells assessed as inhibition of cell proliferation by propidium iodide assay. The class given is functional, cell-based.
Another data set has as its system PANC-1. The experiment in a line: Cytotoxicity against human PANC-1 cells assessed as inhibition of cell proliferation by propidium iodide assay. The class given is functional, cell-based.
A further data set relates to MAXF401 cell line. In words: Cytotoxicity against human MAXF401 cells assessed as inhibition of cell proliferation by propidium iodide assay. The class given is functional, cell-based.
The test system of data set [4] is HT-29. In words: Cytotoxicity against human HT-29 cells assessed as inhibition of cell proliferation by propidium iodide assay. The format is functional, cell-based.
Data set [5] is described as follows: Cytotoxicity against human RXF 486L cells assessed as inhibition of cell proliferation by propidium iodide assay. The format is functional, cell-based.
The nature of data set [6]: Cytotoxicity against human GXF 251L cells assessed as inhibition of cell proliferation by propidium iodide assay. The class given is functional, cell-based.
Data set [7] is described as follows: Cytotoxicity against human OVXF 899L cells assessed as inhibition of cell proliferation by propidium iodide assay. The class given is functional, cell-based.
A further data set concerns LXF-289 cell line. In words: Cytotoxicity against human LXF-289 cell line assessed as inhibition of cell proliferation by propidium iodide assay. The class given is functional, cell-based.
Another data set has as its system OVCAR-3. In words: Cytotoxicity against human OVCAR-3 cells assessed as inhibition of cell proliferation by propidium iodide assay. The format is functional, cell-based.
The test system of data set [8] is Lung LXF 629L tumor cell line. In words: Cytotoxicity against human Lung LXF 629L tumor cell line assessed as inhibition of cell proliferation by propidium iodide assay. The class given is functional, cell-based.
A further data set deals with SF-268. The experiment in a line: Cytotoxicity against human SF-268 cells assessed as inhibition of cell proliferation by propidium iodide assay. The class given is functional, cell-based.
In another data set the test system is RXF 393. In words: Cytotoxicity against human RXF 393 cells assessed as inhibition of cell proliferation by propidium iodide assay. The format is functional, cell-based.
The subject of the next data set is T-24. In words: Cytotoxicity against human T24 cells assessed as inhibition of cell proliferation by propidium iodide assay. The format is functional, cell-based.
The nature of data set [9]: Cytotoxicity against human OVXF 1619L cells assessed as inhibition of cell proliferation by propidium iodide assay. The class given is functional, cell-based.
A further data set has as its system DU-145. In words: Cytotoxicity against human DU-145 cells assessed as inhibition of cell proliferation by propidium iodide assay. The class given is functional, cell-based.
In a further data set the test system is MEXF514. The experiment in a line: Cytotoxicity against human MEXF514 cells assessed as inhibition of cell proliferation by propidium iodide assay. The format is functional, cell-based.
A further data set relates to NCI-H460. The experiment in a line: Cytotoxicity against human NCI-H460 cells assessed as inhibition of cell proliferation by propidium iodide assay. The format is functional, cell-based.
Another data set relates to CWR22R. The experiment in a line: Cytotoxicity against human 22Rv1 cells assessed as inhibition of cell proliferation by propidium iodide assay. The class given is functional, cell-based.
Another data set deals with PC-3M. The experiment in a line: Cytotoxicity against human PC-3M cells assessed as inhibition of cell proliferation by propidium iodide assay. The format is functional, cell-based.
The test system of a further data set is LXFL 529. The experiment in a line: Cytotoxicity against human LXFL 529 cells assessed as inhibition of cell proliferation by propidium iodide assay. The class given is functional, cell-based.
Another data set relates to KB. In words: Cytotoxicity against human KB cells incubated for 48 hrs by SRB colorimetric assay. The class given is functional, cell-based.
Data set [10] in a line: Cytotoxicity against African green monkey Vero cells incubated for 48 hrs by SRB colorimetric assay. The class given is toxicity, cell-based, Chlorocebus sabaeus.
A further data set has as its system NCI-H187. In words: Cytotoxicity against human NCI-H187 cells incubated for 48 hrs by SRB colorimetric assay. The format is functional, cell-based. Conditions: NCI-H187, 48 h.
A further data set relates to BC1 cell line. The experiment in a line: Cytotoxicity against human BC1 cell line incubated for 48 hrs by SRB colorimetric assay. The class given is functional, cell-based. The settings on record: BC1, 48 h.
For a further data set, the system named is NUGC-3. The experiment in a line: Growth inhibition of human NUGC-3 cells. The format is functional.
Another data set relates to NCI-H23. In words: Growth inhibition of human NCI-H23 cells. The class given is functional.
The test system of another data set is A2780. The experiment in a line: Cytotoxicity against human A2780 cells. The class given is functional, cell-based.
For data set [11], the system named is HCT-116. In words: Cytotoxicity against human HCT-116 cells. The format is functional, cell-based.
Another data set concerns HCT-116/VM46. In words: Cytotoxicity against human HCT-116/VM46 cells. The format is functional, cell-based.

As to `C=C(C)[C@H]1CC=C(CO)CC1`, the IC50 is 158 µM in the data set on T84, 100 µM in the data set with HT-29 [1] and 78.5 µM in the data set on Caco-2.

For `C/C=C(\C)[C@H](O[C@@H]1O[C@H](CO)[C@@H](O)[C@H](O)[C@H]1O)[C@H](C)/C=C(C)/C=C/C/C(C)=C/Cc1nc(OC)cc(O)c1C`, the IC50 (in the data set on RXF 944; in the data set on HCT-116 [2]; with LNCaP; in the data set on MCF7; in the data set with MEXF276L; in data set [3]) was 2 µM throughout. The IC50 (in the data set with PANC-1; in the data set with MAXF401 cell line; in the data set with HT-29 [4]; in [5]; in data set [6]; in [7]) was 2 µM each time. Besides, the IC50 (with LXF-289 cell line; in the data set with OVCAR-3; in [8]; in the data set with SF-268; in the data set with RXF 393; in the data set with T-24) was 2 µM in each case. The IC50 (in data set [9]; with DU-145; in the data set on MEXF514; in the data set with NCI-H460; in the data set on CWR22R; in the data set with PC-3M) was 2 µM throughout. The IC50 with LXFL 529 was determined as 2 µM.

As for `CO[C@H]1[C@H](O)[C@@H](O)[C@H](O[C@H](C[C@@]2(C)[C@H](C)CCC(=O)[C@@H]2C)/C(C)=C/Cc2c(O)c(Cl)c(C)c(C=O)c2O)O[C@@H]1CO`, the IC50 in the data set with KB was 19 µg/mL (≈ 31.7 µM); with NCI-H187, 7.9 µg/mL (≈ 13.2 µM); in the data set with BC1 cell line it was 8.4 µg/mL (≈ 14 µM). The compound also gave an IC50 at 48 h in data set [10] of 6.9 µg/mL (≈ 11.5 µM).

As to `CC(C)[C@H](CCCCCCCCCCCCC(=O)NCC(=O)O)O[C@@H]1O[C@H](COC(=O)CCC(=O)O)[C@@H](O)[C@H](O)[C@H]1O`, the GI50 in the data set on NUGC-3 was 17.8 µg/mL (≈ 29.4 µM); in the data set with NCI-H23 it was 25.2 µg/mL (≈ 41.6 µM).

Turning to `CO[C@]12C=C[C@](C)(O1)[C@@H](OC(=O)/C=C/c1cn(C)cn1)C[C@H]1C(C)=CC[C@H](C(C)C)[C@H]1/C=C\2CO[C@@H]1OC[C@@H](O)[C@@H](O)[C@@H]1OC(C)=O` [ELEUTHEROBIN], the IC50 with A2780, with HCT-116 [11] and in the data set on HCT-116/VM46 was 0.01 µM in each case.
